Assay results published in US11771709B2, “ALK protein degradation agent and anti-tumor application thereof” (ShanghaiTech University, priority 2017, dated 2023).

Test system: SR (NPM-ALK) cells
Assay: Growth inhibition IC50 in ALCL SR cells (CCK8/WST, 72 hours)
Type: cell-based
Conditions: 72 h, SR cells, WST; Brigatinib-based PROTAD molecules (Table 3)
Method: SR (NPM-ALK) and NCI-H2228 (EML4-ALK, V3) cells were purchased from ATCC. […] All Cells were cultured in RPMI1640 medium with 10% FBS and Penicillin-Streptomycin in 37° C. incubator with 5% CO2.
Cells were seeded at specific density in 96 well plates one day before treatment. […] Viable cells were measured via CCK8 reagent and IC50s were calculated via Prism Graphad. Experiments were repeated at least three times.

Q: `COc1cc(N2CCN(C(=O)CCNc3cccc4c3C(=O)N(C3CCC(=O)NC3=O)C4=O)CC2)ccc1Nc1ncc(Cl)c(Nc2ccccc2P(C)(C)=O)n1` (stereo not shown) [SIAIS1197057, 4-((3-(4-(4-((5-chloro-4-((2-(dimethylphosphoryl)phenyl)amino)pyrimidin-2-yl)amino)-3-methoxyphenyl)piperazin-1-yl)-3-oxopropyl)amino)-2-(2,6-dioxopiperidin-3-yl)isoindoline-1,3-dione] was tested. Which IC50 did it give?
A: 17.7 ± 9.6 nM

Q: For `COc1cc(N2CCC(N3CCN(C(=O)CCCNc4cccc5c4CN(C4CCC(=O)NC4=O)C5=O)CC3)CC2)ccc1Nc1ncc(Cl)c(Nc2ccccc2P(C)(C)=O)n1` (stereo not shown) [SIAIS219155, 3-(4-((4-(4-(1-(4-((5-chloro-4-((2-(dimethylphosphoryl)phenyl)amino)pyrimidin-2-yl)amino)-3-methoxyphenyl)piperidin-4-yl)piperazin-1-yl)-4-oxobutyl)amino)-1-oxoisoindolin-2-yl)piperidine-2,6-dione], which IC50 is on record?
A: 4.34 ± 0.4 nM

Q: `COc1cc(N2CCC(NC(=O)CCCCNc3cccc4c3CN(C3CCC(=O)NC3=O)C4=O)CC2)ccc1Nc1ncc(Cl)c(Nc2ccccc2P(C)(C)=O)n1` (stereo not shown) [SIAIS219152, N-(1-(4-((5-chloro-4-((2-(dimethylphosphoryl)phenyl)amino)pyrimidin-2-yl)amino)-3-methoxyphenyl)piperidin-4-yl)-5-((2-(2,6-dioxopiperidin-3-yl)-1-oxoisoindolin-4-yl)amino)pentanamide] was tested. Which IC50 did it give?
A: 3.78 ± 0.4 nM

Q: For `COc1cc(N2CCC(N3CCN(C(=O)CCCCCCNc4cccc5c4CN(C4CCC(=O)NC4=O)C5=O)CC3)CC2)ccc1Nc1ncc(Cl)c(Nc2ccccc2P(C)(C)=O)n1` (stereo not shown) [SIAIS219124, 3-(4-((7-(4-(1-(4-((5-chloro-4-((2-(dimethylphosphoryl)phenyl)amino)pyrimidin-2-yl)amino)-3-methoxyphenyl)piperidin-4-yl)piperazin-1-yl)-7-oxoheptyl)amino)-1-oxoisoindolin-2-yl)piperidine-2,6-dione], which IC50 is on record?
A: 2.47 ± 0.6 nM

Q: Which IC50 does the source give for `COc1cc(N2CCC(N3CCN(C(=O)CCCCNc4cccc5c4CN(C4CCC(=O)NC4=O)C5=O)CC3)CC2)ccc1Nc1ncc(Cl)c(Nc2ccccc2P(C)(C)=O)n1` (stereo not shown) [SIAIS219156, 3-(4-((5-(4-(1-(4-((5-chloro-4-((2-(dimethylphosphoryl)phenyl)amino)pyrimidin-2-yl)amino)-3-methoxyphenyl)piperidin-4-yl)piperazin-1-yl)-5-oxopentyl)amino)-1-oxoisoindolin-2-yl)piperidine-2,6-dione] here?
A: 3.09 ± 0.2 nM

Q: For `COc1cc(N2CCC(N3CCN(C(=O)CCc4cccc5c4C(=O)N(C4CCC(=O)NC4=O)C5=O)CC3)CC2)ccc1Nc1ncc(Cl)c(Nc2ccccc2P(C)(C)=O)n1` (stereo not shown) [SIAIS219158, 4-(3-(4-(1-(4-((5-chloro-4-((2-(dimethylphosphoryl)phenyl)amino)pyrimidin-2-yl)amino)-3-methoxyphenyl)piperidin-4-yl)piperazin-1-yl)-3-oxopropyl)-2-(2,6-dioxopiperidin-3-yl)isoindoline-1,3-dione], which IC50 is on record?
A: 30.3 ± 3.8 nM

Q: `COc1cc(N2CCC(NCCCCNc3cccc4c3C(=O)N(C3CCC(=O)NC3=O)C4=O)CC2)ccc1Nc1ncc(Cl)c(Nc2ccccc2P(C)(C)=O)n1` (stereo not shown) [SIAIS220026, 4-((4-((1-(4-((5-chloro-4-((2-(dimethylphosphoryl)phenyl)amino)pyrimidin-2-yl)amino)-3-methoxyphenyl)piperidin-4-yl)amino)butyl)amino)-2-(2,6-dioxopiperidin-3-yl)isoindoline-1,3-dione] was tested. Which IC50 did it give?
A: 7.4 nM

Same assay, conditions: SR cells, WST, 72 hours; Brigatinib-based PROTAD molecules (Table 3)

Q: How did the IC50 turn out when `COc1cc(N2CCNCC2)ccc1Nc1ncc(Cl)c(Nc2ccccc2P(C)(C)=O)n1` [Brigatinib Analogue A(SIAIS1197135), (2-((5-chloro-2-((2-methoxy-4-(piperazin-1-yl)phenyl)amino)pyrimidin-4-yl)amino)phenyl) dimethylphosphine oxide] was run?
A: 1.6 ± 1 nM

Same assay, conditions: SR cells, WST; Alectinib based ALK PROTAD compounds (Table 4)

Q: With `CCc1cc2c(cc1N1CCC(NC(=O)CCCCCCCCC(=O)N[C@H](C(=O)N3C[C@H](O)C[C@H]3C(=O)NCc3ccc(-c4scnc4C)cc3)C(C)(C)C)CC1)C(C)(C)c1[nH]c3cc(C#N)ccc3c1C2=O` [SIAIS219021, N1-(1-(3-cyano-9-ethyl-6,6-dimethyl-11-oxo-6,11-dihydro-5H-benzo[b]carbazol-8-yl)piperidin-4-yl)-N10-((S)-1-((2S,4R)-4-hydroxy-2-((4-(4-methylthiazol-5-yl)benzyl)carbamoyl)pyrrolidin-1-yl)-3,3-dimethyl-1-oxobutan-2-yl)decanediamide] as the molecule, how does the IC50 read?
A: 115 nM

Q: With `CCc1cc2c(cc1N1CCC(N3CCN(C(=O)CCOCCOCCOCCOCCNc4cccc5c4C(=O)N(C4CCC(=O)NC4=O)C5=O)CC3)CC1)C(C)(C)c1[nH]c3cc(C#N)ccc3c1C2=O` (stereo not shown) [SIAIS219019, 8-(4-(4-(1-((2-(2,6-dioxopiperidin-3-yl)-1,3-dioxoisoindolin-4-yl)amino)-3,6,9,12-tetraoxapentadecan-15-oyl)piperazin-1-yl)piperidin-1-yl)-9-ethyl-6,6-dimethyl-11-oxo-6,11-dihydro-5H-benzo[b]carbazole-3-carbonitrile] as the molecule, how does the IC50 read?
A: 38.3 nM

Q: How did the IC50 turn out when `CCc1cc2c(cc1N1CCC(NC(=O)CCCCCNc3cccc4c3C(=O)N(C3CCC(=O)NC3=O)C4=O)CC1)C(C)(C)c1[nH]c3cc(C#N)ccc3c1C2=O` (stereo not shown) [SIAIS219011, N-(1-(3-cyano-9-ethyl-6,6-dimethyl-11-oxo-6,11-dihydro-5H-benzo[b]carbazol-8-yl)piperidin-4-yl)-6-((2-(2,6-dioxopiperidin-3-yl)-1,3-dioxoisoindolin-4-yl)amino)hexanamide] was run?
A: 49.9 nM

Q: How did the IC50 turn out when `CCc1cc2c(cc1N1CCC(NC(=O)CCOCCOCCNc3cccc4c3C(=O)N(C3CCC(=O)NC3=O)C4=O)CC1)C(C)(C)c1[nH]c3cc(C#N)ccc3c1C2=O` (stereo not shown) [SIAIS219023] was run?
A: 29.3 nM

Q: Which IC50 does the source give for `CCc1cc2c(cc1N1CCC(N3CCN(C(=O)CCCCCCCCC(=O)N[C@H](C(=O)N4C[C@H](O)C[C@H]4C(=O)NCc4ccc(-c5scnc5C)cc4)C(C)(C)C)CC3)CC1)C(C)(C)c1[nH]c3cc(C#N)ccc3c1C2=O` [SIAIS219016, (2S,4R)-1-((S)-2-(10-(4-(1-(3-cyano-9-ethyl-6,6-dimethyl-11-oxo-6,11-dihydro-5H-benzo[b]carbazol-8-yl)piperidin-4-yl)piperazin-1-yl)-10-oxodecanamido)-3,3-dimethylbutanoyl)-4-hydroxy-N-(4-(4-methylthiazol-5-yl)benzyl)pyrrolidine-2-carboxamide] here?
A: 80.8 nM

Q: How did the IC50 turn out when `CCc1cc2c(cc1N1CCC(NC(=O)CCCCC(=O)N[C@H](C(=O)N3C[C@H](O)C[C@H]3C(=O)NCc3ccc(-c4scnc4C)cc3)C(C)(C)C)CC1)C(C)(C)c1[nH]c3cc(C#N)ccc3c1C2=O` [SIAIS219020, N1-(1-(3-cyano-9-ethyl-6,6-dimethyl-11-oxo-6,11-dihydro-5H-benzo[b]carbazol-8-yl)piperidin-4-yl)-N6-((S)-1-((2S,4R)-4-hydroxy-2-((4-(4-methylthiazol-5-yl)benzyl)carbamoyl)pyrrolidin-1-yl)-3,3-dimethyl-1-oxobutan-2-yl)adipamide] was run?
A: 30.3 nM

Q: For `CCc1cc2c(cc1N1CCC(N3CCN(C(=O)CCOCCOCCNc4cccc5c4C(=O)N(C4CCC(=O)NC4=O)C5=O)CC3)CC1)C(C)(C)c1[nH]c3cc(C#N)ccc3c1C2=O` (stereo not shown) [SIAIS219018, 8-(4-(4-(3-(2-(2-((2-(2,6-dioxopiperidin-3-yl)-1,3-dioxoisoindolin-4-yl)amino)ethoxy)ethoxy)propanoyl)piperazin-1-yl)piperidin-1-yl)-9-ethyl-6,6-dimethyl-11-oxo-6,11-dihydro-5H-benzo[b]carbazole-3-carbonitrile], which IC50 is on record?
A: 13.3 nM

Q: Which IC50 does the source give for `CCc1cc2c(cc1N1CCN(C(=O)CCNc3cccc4c3C(=O)N(C3CCC(=O)NC3=O)C4=O)CC1)C(C)(C)c1[nH]c3cc(C#N)ccc3c1C2=O` (stereo not shown) [SIAIS164029, 8-(4-(3-((2-(2,6-dioxopiperidin-3-yl)-1,3-dioxoisoindolin-4-yl)amino)propanoyl)piperazin-1-yl)-9-ethyl-6,6-dimethyl-11-oxo-6,11-dihydro-5H-benzo[b]carbazole-3-carbonitrile] here?
A: 27.3 nM

Q: `CCc1cc2c(cc1N1CCC(N3CCN(C(=O)CCCCCNc4cccc5c4C(=O)N(C4CCC(=O)NC4=O)C5=O)CC3)CC1)C(C)(C)c1[nH]c3cc(C#N)ccc3c1C2=O` (stereo not shown) [SIAIS219004, 8-(4-(4-(6-((2-(2,6-dioxopiperidin-3-yl)-1,3-dioxoisoindolin-4-yl)amino)hexanoyl)piperazin-1-yl)piperidin-1-yl)-9-ethyl-6,6-dimethyl-11-oxo-6,11-dihydro-5H-benzo[b]carbazole-3-carbonitrile] was tested. Which IC50 did it give?
A: 36.8 nM

Target: T1, ALK protein in H3122 (EML4-ALK) cells (Homo sapiens, UniProt Q9UM73)
T1 construct: EML4 (Echinoderm microtubule-associated protein-like 4, Q9HC35) fusion partner, variant 1; host or cells: NCI-H3122 lung adenocarcinoma cells; the other entry of the earlier key: EML4 (Q9HC35, Echinoderm microtubule-associated protein-like 4)
T1 sequence (Q9UM73 with tags, fused parts or gaps): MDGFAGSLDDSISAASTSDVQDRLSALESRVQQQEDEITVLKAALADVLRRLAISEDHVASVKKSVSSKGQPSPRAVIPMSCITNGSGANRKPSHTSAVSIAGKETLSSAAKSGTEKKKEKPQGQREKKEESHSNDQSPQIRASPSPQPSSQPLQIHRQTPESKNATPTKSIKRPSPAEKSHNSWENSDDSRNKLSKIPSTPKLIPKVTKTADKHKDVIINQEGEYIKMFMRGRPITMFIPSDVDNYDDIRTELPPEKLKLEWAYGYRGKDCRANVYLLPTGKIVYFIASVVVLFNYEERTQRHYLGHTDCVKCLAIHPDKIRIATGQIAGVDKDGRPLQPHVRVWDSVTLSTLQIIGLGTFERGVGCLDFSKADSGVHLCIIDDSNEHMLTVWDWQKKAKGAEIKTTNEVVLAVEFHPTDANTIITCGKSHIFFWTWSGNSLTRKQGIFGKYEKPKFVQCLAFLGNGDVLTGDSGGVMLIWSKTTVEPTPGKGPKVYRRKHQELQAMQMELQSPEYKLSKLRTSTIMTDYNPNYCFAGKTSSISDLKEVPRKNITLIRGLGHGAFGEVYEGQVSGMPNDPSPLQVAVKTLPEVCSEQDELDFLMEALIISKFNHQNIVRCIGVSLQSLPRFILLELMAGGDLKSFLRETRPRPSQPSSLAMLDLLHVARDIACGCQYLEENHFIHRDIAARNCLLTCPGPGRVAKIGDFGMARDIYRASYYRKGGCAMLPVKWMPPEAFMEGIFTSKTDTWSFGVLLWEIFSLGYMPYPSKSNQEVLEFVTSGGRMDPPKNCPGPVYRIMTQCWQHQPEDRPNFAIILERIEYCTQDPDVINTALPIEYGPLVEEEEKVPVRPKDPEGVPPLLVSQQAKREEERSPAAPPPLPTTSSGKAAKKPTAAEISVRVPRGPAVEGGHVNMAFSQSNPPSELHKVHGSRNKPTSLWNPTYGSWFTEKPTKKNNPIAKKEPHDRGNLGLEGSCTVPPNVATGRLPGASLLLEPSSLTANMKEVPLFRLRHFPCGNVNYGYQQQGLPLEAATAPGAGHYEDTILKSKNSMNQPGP
Assay: Western blot of ALK protein level (degradation, DC50), ALK phosphorylation and downstream signaling in H3122 cells
Type: cell-based
Conditions: ALK protein degradation in H3122 cells
Method: Cancer cells were seeded in 1 ml RPMI1640 medium in 24-well plate at the density of 3×10^5 or 1.5×10^5 cells/ml. […] Then cells were washed twice with PBS and lyzed in RIPA lysis buffer with Halt Proteinase and Phosphotase inhibitor. Equal amount of proteins were loaded to run SDS-PAGE gels after denature. The gels were blotted to PVDF membrane. After incubating with first and secondary antibodies, the images were developed using SuperSignal West Pico Chemiluminescent Substrate.
DC50 (concentration required to degrade protein by half) were calculated based on the intensity from western blot, and data were analyzed via Prism GraphPad with non-linear regression.

Q: Which DC50 does the source give for `COc1cc(N2CCN(C(=O)CCNc3cccc4c3C(=O)N(C3CCC(=O)NC3=O)C4=O)CC2)ccc1Nc1ncc(Cl)c(Nc2ccccc2P(C)(C)=O)n1` (stereo not shown) [SIAIS1197057, 4-((3-(4-(4-((5-chloro-4-((2-(dimethylphosphoryl)phenyl)amino)pyrimidin-2-yl)amino)-3-methoxyphenyl)piperazin-1-yl)-3-oxopropyl)amino)-2-(2,6-dioxopiperidin-3-yl)isoindoline-1,3-dione] here?
A: 50 to 500 nM

Q: `C[C@@H](Oc1cc(-c2cnn(C3CCN(C(=O)CCCCNc4cccc5c4C(=O)N(C4CCC(=O)NC4=O)C5=O)CC3)c2)cnc1N)c1c(Cl)ccc(F)c1Cl` (stereo partly drawn) [SIAIS151082, 4-((5-(4-(4-(6-amino-5-((R)-1-(2,6-dichloro-3-fluorophenyl)ethoxy)pyridin-3-yl)-1H-pyrazol-1-yl)piperidin-1-yl)-5-oxopentyl)amino)-2-(2,6-dioxopiperidin-3-yl)isoindoline-1,3-dione] was tested. Which DC50 did it give?
A: 1 to 10 nM

Q: For `C[C@@H](Oc1cc(-c2cnn(C3CCN(C(=O)CNc4cccc5c4C(=O)N(C4CCC(=O)NC4=O)C5=O)CC3)c2)cnc1N)c1c(Cl)ccc(F)c1Cl` (stereo partly drawn) [SIAIS151083, 4-((2-(4-(4-(6-amino-5-((R)-1-(2,6-dichloro-3-fluorophenyl)ethoxy)pyridin-3-yl)-1H-pyrazol-1-yl)piperidin-1-yl)-2-oxoethyl)amino)-2-(2,6-dioxopiperidin-3-yl)isoindoline-1,3-dione], which DC50 is on record?
A: 10 to 50 nM

Q: With `C[C@@H](Oc1cc(-c2cnn(C3CCN(C(=O)CCOCCOCCOCCOCCNc4cccc5c4C(=O)N(C4CCC(=O)NC4=O)C5=O)CC3)c2)cnc1N)c1c(Cl)ccc(F)c1Cl` (stereo partly drawn) [SIAIS151060, 4-((15-(4-(4-(6-amino-5-((R)-1-(2,6-dichloro-3-fluorophenyl)ethoxy)pyridin-3-yl)-1H-pyrazol-1-yl)piperidin-1-yl)-15-oxo-3,6,9,12-tetraoxapentadecyl)amino)-2-(2,6-dioxopiperidin-3-yl)isoindoline-1,3-dione] as the molecule, how does the DC50 read?
A: 100 to 500 nM

Same assay, conditions: H3122 cells, western blot

Q: `C[C@@H](Oc1cc(-c2cnn(C3CCN(C(=O)CCCCNc4cccc5c4C(=O)N(C4CCC(=O)NC4=O)C5=O)CC3)c2)cnc1N)c1c(Cl)ccc(F)c1Cl` (stereo partly drawn) [SIAIS151082, 4-((5-(4-(4-(6-amino-5-((R)-1-(2,6-dichloro-3-fluorophenyl)ethoxy)pyridin-3-yl)-1H-pyrazol-1-yl)piperidin-1-yl)-5-oxopentyl)amino)-2-(2,6-dioxopiperidin-3-yl)isoindoline-1,3-dione] was tested. Which “concentration at which ALK protein level was reduced” value did it give?
A: about 50 nM
